Patent US4020111A, “Propynyloxy alkyl arene insecticides” (priority 1975, dated 1977)

How the values were obtained:
mice [1] = test: extension of Secobarbital sleeping time by synergists; format: in vivo, Swiss albino white male mice; settings: Secobarbital 37 mg/K; for Relative Sleeping Time: treated/control
Outline: (§1)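 Swiss albino male mice (~38 days, 25-30 g) given synergist at 74.0 or 110.0 mg/kg in corn oil 1 h before Secobarbital 37.0 mg/kg or Noludar 110.0 mg/kg in water. Sleeping time measured from drug dosing to righting-reflex recovery; relative sleeping time = treated ÷ drug-only control.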

CH strain flies = test: spray application of pyrethrum, average percent knockdown with time; format: in vivo, housefly (CH strain); settings: pyrethrum 100 + synergist 100 mg/cc
Procedure: The average percent knockdown of CH strain flies, as a function of time, resulting from spray application of pyrethrum, alone and with synergists, are given in Table XXXXIII. Duplicate tests were performed using 50 CH strain houseflies per test. Test solutions of 100 mg and 200mg of pyrethrum per cc of acetone, 200 mg of synergist per cc of acetone, and a mixture of 100 mg of pyrethrum and 100 mg of synergist per cc of acetone were prepared. The fifty CH strain houseflies were put in a 40 liter spray chamber and 1 cc of the test solution was sprayed into the test chamber with a spray pistol. The synergists alone at 200 mg/cc caused no knockdown.

mice [2] = test: extension of Noludar sleeping time by synergists; format: in vivo, Swiss albino white male mice; settings: Noludar 110 mg/K, synergist 110 mg/K
Outline: as §1

[3] = system: polyvalent resistant (CH strain) houseflies; test: whole plant or invertebrate; format: in vivo, housefly (CH strain); settings: CH strain
houseflies = test: percent kill with Diazinon, Table XXVII (strain not given); format: in vivo, housefly; settings: Diazinon 5 + synergist 10 μg/fly, 1440 min
mice [4] = test: synergism of acute toxicity of Dimetilan, GS 13005, Secobarbital and Methadone (intraperitoneal); format: in vivo, Swiss albino white male mice; settings: 48 hours, of eight mice
Outline: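 Male Swiss albino mice (5–6 weeks, 23–27 g), eight per dose; synergist in corn oil given i.p. 1 h before i.p. insecticide or drug (drugs in distilled water). Lethality recorded over at least 6 h; controls received corn oil plus agent alone.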

Compound: C#CCON=Cc1cccc2ccccc12 [I-I]
- Mean Sleeping Time (mice [1]; synergist 74 mg/K): 31 min
- Relative Sleeping Time (mice [1]; synergist 74 mg/K): 1.1
- Mean Sleeping Time (mice [1]; synergist 110 mg/K): 102 min
- Relative Sleeping Time (mice [1]; synergist 110 mg/K): 1.7
- average percent knockdown (CH strain flies; 5 min): 4%
- average percent knockdown (CH strain flies; 10 min): 7%
- average percent knockdown (CH strain flies; 15 min): 19%
- average percent knockdown (CH strain flies; 20 min): 29%
- average percent knockdown (CH strain flies; 25 min): 40%
- average percent knockdown (CH strain flies; 30 min): 49%
- average percent knockdown (CH strain flies; 40 min): 57%
- average percent knockdown (CH strain flies; 50 min): 86%
- average percent knockdown (CH strain flies; 60 min): 92%
- Mean Sleeping Time (mice [2]): 62 min
- Relative Sleeping Time (mice [2]; treated/control): 2.1
- percent kill after 24 hours ([3]; GS 13005 1 + synergist 2 μg/fly): 47%
- percent kill after 24 hours ([3]; Pyrethrum 2 + synergist 4 μg/fly): 52%
- percent kill (houseflies): 55%
- number of mice dead (mice [4]; Dimetilan 8 mg/kg + synergist 80 mg/kg ip): 0
- number of mice dead (mice [4]; Dimetilan 8 mg/kg + synergist 240 mg/kg ip): 3
